Measured values reported in US10947248B2, “4β-amidotriazole linked podophyllotoxin derivatives as potential anticancer agents” (COUNCIL OF SCIENTIFIC & INDUSTRIAL RESEARCH, priority 2016, dated 2021).
Where two headings read alike, the source gives them in different places.

Legend:
[1] = test system: Hela (human cervical cancer); test: MTT in vitro cytotoxicity assay, Hela; format: cell-based; details: read-out: IC50 Hela
[2] = test system: human cancer cell lines (Hela, MCF-7, DU-145, A549, HepG2, HT-29); test: MTT in vitro cytotoxicity assay, all tested human cancer cell lines; format: cell-based; details: range over Hela, read-out: IC50 values ranging over all tested human cancer cell lines
Description: The IC50 values (in μM) for compounds 8a, 8c, 8n, 8p, 9c and 9p have been illustrated in Table 1.

A549 (human lung cancer) = test: MTT in vitro cytotoxicity assay, A549; format: cell-based; details: read-out: IC50 A549
HepG2 (liver cancer) = test: MTT in vitro cytotoxicity assay, HepG2; format: cell-based; details: Homo sapiens, read-out: IC50 HepG2
HT-29 (colon cancer) = test: MTT in vitro cytotoxicity assay, HT-29; format: cell-based; details: Homo sapiens, read-out: IC50 HT-29
[3] = test system: MCF-7 (human breast cancer); test: MTT in vitro cytotoxicity assay, MCF-7; format: cell-based; details: read-out: IC50 MCF-7
[4] = test system: DU-145 (human prostate cancer); test: MTT in vitro cytotoxicity assay, DU-145; format: cell-based; details: read-out: IC50 DU-145

With `COc1cc([C@@H]2c3cc4c(cc3[C@@H](NC(=O)c3cn(-c5ccccc5)nn3)[C@H]3COC(=O)[C@H]23)OCO4)cc(OC)c1OC` [Compound 8a, N-((5S,5aS,8aR,9R)-8-oxo-9-(3,4,5-trimethoxyphenyl)-5,5a,6,8,8a,9-hexahydrofuro[3′,4′:6,7]naphtho[2,3-d][1,3]dioxol-5-yl)-1-phenyl-1H-1,2,3-triazole-4-carboxamide] the IC50 ([1]; HeLa, 48 h) was 2.47 ± 0.24 µM, the IC50 [2] was 0.7 to 4 µM and the IC50 (A549 (human lung cancer); A549, 48 h) was 1.82 ± 0.11 µM. It also gave an IC50 (HepG2 (liver cancer); HepG2, 48 h) of 1.94 ± 0.13 µM, an IC50 (HT-29 (colon cancer); HT-29, 48 h) of 5.37 ± 0.74 µM and an IC50 ([3]; MCF7, 48 h) of 1.45 ± 0.46 µM. For the same molecule, the IC50 ([4]; DU-145, 48 h) was 1.31 ± 0.11 µM and the melting point was 170 to 172 °C.
With `COc1cc(OC)cc(-n2cc(C(=O)N[C@@H]3c4cc5c(cc4[C@@H](c4cc(OC)c(OC)c(OC)c4)[C@H]4C(=O)OC[C@@H]43)OCO5)nn2)c1` the melting point was 145 to 148 °C.
`COc1cc(Cn2cc(C(=O)N[C@@H]3c4cc5c(cc4[C@@H](c4cc(OC)c(OC)c(OC)c4)[C@H]4C(=O)OC[C@@H]43)OCO5)nn2)cc(OC)c1OC` gave a melting point of 189 to 192 °C.
For `COc1cc([C@@H]2c3cc4c(cc3[C@@H](NC(=O)c3cn(Cc5ccc(Cl)cc5)nn3)[C@H]3COC(=O)[C@H]23)OCO4)cc(OC)c1OC` [Compound 9p, 1-(4-chlorobenzyl)-N-((5S,5aS,8aR,9R)-8-oxo-9-(3,4,5-trimethoxyphenyl)-5,5a,6,8,8a,9-hexahydrofuro[3′,4′:6,7]naphtho[2,3-d][1,3]dioxol-5-yl)-1H-1,2,3-triazole-4-carboxamide], the IC50 ([1]; HeLa, 48 h) was 3.57 ± 0.16 µM, the IC50 [2] was 0.7 to 4 µM and the IC50 (A549 (human lung cancer); A549, 48 h) was 8.06 ± 0.06 µM. For the same molecule, the IC50 (HepG2 (liver cancer); HepG2, 48 h) was 3.54 ± 0.37 µM, the IC50 (HT-29 (colon cancer); HT-29, 48 h) was 23.7 ± 0.38 µM and the IC50 ([3]; MCF7, 48 h) was 5.3 ± 0.39 µM. For the same molecule, the IC50 ([4]; DU-145, 48 h) was 2.37 ± 0.08 µM and the melting point was 180 to 184 °C.
`COc1cc([C@@H]2c3cc4c(cc3[C@@H](NC(=O)c3cn(-c5ccc6c(c5)OCO6)nn3)[C@H]3COC(=O)[C@H]23)OCO4)cc(OC)c1OC` gave a melting point of 188 to 191 °C.
For `COc1ccc(-n2cc(C(=O)N[C@@H]3c4cc5c(cc4[C@@H](c4cc(OC)c(OC)c(OC)c4)[C@H]4C(=O)OC[C@@H]43)OCO5)nn2)cc1` [Compound 8c, 1-(4-methoxyphenyl)-N-((5S,5aS,8aR,9R)-8-oxo-9-(3,4,5-trimethoxyphenyl)-5,5a,6,8,8a,9-hexahydrofuro[3′,4′:6,7]naphtho[2,3-d][1,3]dioxol-5-yl)-1H-1,2,3-triazole-4-carboxamide], the IC50 ([1]; HeLa, 48 h) was 6.49 ± 0.22 µM, the IC50 [2] was 0.7 to 4 µM and the IC50 (A549 (human lung cancer); A549, 48 h) was 1.61 ± 0.38 µM. The IC50 (HepG2 (liver cancer); HepG2, 48 h) was 2.79 ± 0.54 µM, the IC50 (HT-29 (colon cancer); HT-29, 48 h) was 11.4 ± 1.66 µM and the IC50 ([3]; MCF7, 48 h) was 1.11 ± 0.1 µM. The IC50 ([4]; DU-145, 48 h) was 0.99 ± 0.07 µM and the melting point was 195 to 197 °C.
For `COc1cc([C@@H]2c3cc4c(cc3[C@@H](NC(=O)c3cn(-c5ccc(Cl)cc5)nn3)[C@H]3COC(=O)[C@H]23)OCO4)cc(OC)c1OC` [Compound 8p, 1-(4-chlorophenyl)-N-((5S,5aS,8aR,9R)-8-oxo-9-(3,4,5-trimethoxyphenyl)-5,5a,6,8,8a,9-hexahydrofuro[3′,4′:6,7]naphtho[2,3-d][1,3]dioxol-5-yl)-1H-1,2,3-triazole-4-carboxamide], the IC50 ([1]; HeLa, 48 h) was 0.78 µM, the IC50 [2] was 0.7 to 4.11 µM and the IC50 (A549 (human lung cancer); A549, 48 h) was 1.2 µM. It also gave an IC50 (HepG2 (liver cancer); HepG2, 48 h) of 0.78 µM, an IC50 (HT-29 (colon cancer); HT-29, 48 h) of 4.11 µM and an IC50 ([3]; MCF7, 48 h) of 0.97 µM. For the same molecule, the IC50 ([4]; DU-145, 48 h) was 0.7 µM and the melting point was 222 to 225 °C.
In the case of `COc1cc([C@@H]2c3cc4c(cc3[C@H](O)[C@H]3COC(=O)[C@H]23)OCO4)cc(OC)c1OC` [Podophyllotoxin], the IC50 ([1]; HeLa, 48 h) is reported as 3.45 ± 0.29 µM, the IC50 (A549 (human lung cancer); A549, 48 h) is reported as 4.6 ± 0.42 µM and the IC50 (HepG2 (liver cancer); HepG2, 48 h) is reported as 6.63 ± 0.17 µM. For the same molecule, the IC50 (HT-29 (colon cancer); HT-29, 48 h) was 4.78 ± 0.16 µM, the IC50 ([3]; MCF7, 48 h) was 3.06 ± 0.24 µM and the IC50 ([4]; DU-145, 48 h) was 4.15 ± 0.63 µM.
In the case of `COc1cc([C@@H]2c3cc4c(cc3[C@@H](O[C@@H]3O[C@@H]5CO[C@@H](C)O[C@H]5[C@H](O)[C@H]3O)[C@H]3COC(=O)[C@H]23)OCO4)cc(OC)c1O` [Etoposide, reference compound], the IC50 ([1]; Hela, 48 h of drug treatment, average of three individual experiments) is reported as 2.71 ± 0.52 µM, the IC50 (A549 (human lung cancer); A549, 48 h of drug treatment, average of three individual experiments) is reported as 1.97 ± 0.17 µM and the IC50 (HepG2 (liver cancer); HepG2, 48 h of drug treatment, average of three individual experiments) is reported as 2.84 ± 0.27 µM. The IC50 (HT-29 (colon cancer); HT-29, 48 h of drug treatment, average of three individual experiments) was 1.87 ± 0.31 µM, the IC50 ([3]; MCF7, MCF-7, 48 h of drug treatment, average of three individual experiments) was 1.62 ± 0.14 µM and the IC50 ([4]; DU-145, 48 h of drug treatment, average of three individual experiments) was 2.35 ± 0.05 µM.
With `COc1cc([C@@H]2c3cc4c(cc3[C@@H](NC(=O)c3cn(-c5ccc(C(F)(F)F)cc5)nn3)[C@H]3COC(=O)[C@H]23)OCO4)cc(OC)c1OC` [Compound 8n, N-((5S,5aS,8aR,9R)-8-oxo-9-(3,4,5-trimethoxyphenyl)-5,5a,6,8,8a,9-hexahydrofuro[3′,4′:6,7]naphtho[2,3-d][1,3]dioxol-5-yl)-1-(4-(trifluoromethyl)phenyl)-1H-1,2,3-triazole-4-carboxamide] the IC50 ([1]; HeLa, 48 h) was 1.21 ± 0.27 µM, the IC50 [2] was 0.7 to 4 µM and the IC50 (A549 (human lung cancer); A549, 48 h) was 1.96 ± 0.08 µM. It also gave an IC50 (HepG2 (liver cancer); HepG2, 48 h) of 1.21 ± 0.27 µM, an IC50 (HT-29 (colon cancer); HT-29, 48 h) of 4.4 ± 0.05 µM and an IC50 ([3]; MCF7, 48 h) of 1.35 ± 0.07 µM. The IC50 ([4]; DU-145, 48 h) was 0.89 ± 0.02 µM and the melting point was 190 to 194 °C.
Molecule `COc1ccc(Cn2cc(C(=O)N[C@@H]3c4cc5c(cc4[C@@H](c4cc(OC)c(OC)c(OC)c4)[C@H]4C(=O)OC[C@@H]43)OCO5)nn2)cc1` [Compound 9c, 1-(4-methoxybenzyl)-N-((5S,5aS,8aR,9R)-8-oxo-9-(3,4,5-trimethoxyphenyl)-5,5a,6,8,8a,9-hexahydrofuro[3′,4′:6,7]naphtho[2,3-d][1,3]dioxol-5-yl)-1H-1,2,3-triazole-4-carboxamide] has an IC50 ([1]; HeLa, 48 h) of 3.46 ± 0.06 µM, an IC50 [2] of 0.7 to 4 µM and an IC50 (A549 (human lung cancer); A549, 48 h) of 5.82 ± 0.43 µM. The IC50 (HepG2 (liver cancer); HepG2, 48 h) was 1.96 ± 0.07 µM, the IC50 (HT-29 (colon cancer); HT-29, 48 h) was 17.5 ± 0.34 µM and the IC50 ([3]; MCF7, 48 h) was 3.32 ± 0.55 µM. The IC50 ([4]; DU-145, 48 h) was 1.76 ± 0.27 µM and the melting point was 174 to 177 °C.
`COc1cc([C@@H]2c3cc4c(cc3[C@@H](NC(=O)c3cn(-c5cc(OC)c(OC)c(OC)c5)nn3)[C@H]3COC(=O)[C@H]23)OCO4)cc(OC)c1OC` gave a melting point of 181 to 183 °C.
